According to publication PMC11033320, “Activation of p53 signaling and regression of breast and prostate carcinoma cells by spirooxindole-benzimidazole small molecules” (Frontiers in Pharmacology, 2024):

Key:
KM12 = test: NCI anticancer screening, Colon Cancer KM12; format: cell-based; conditions: Homo sapiens; KM12, 10 μM; read-out: % Growth Inhibition (GI %)
In short: (§1)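 Tested under the standard NCI-60 Human Tumor Cell Lines Screen protocol for organic compounds, run by the Developmental Therapeutics Program.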

SK-MEL-5 = test: NCI anticancer screening, Melanoma SK-MEL-5; format: cell-based; conditions: Homo sapiens; SK-MEL-5, 10 μM; read-out: % Growth Inhibition (GI %)
In short: as §1

M14 = test: NCI anticancer screening, Melanoma M14; format: cell-based; conditions: Homo sapiens; M14, 10 μM; read-out: % Growth Inhibition (GI %)
In short: as §1

T-47D = test: NCI anticancer screening, Breast Cancer T-47D; format: cell-based; conditions: Homo sapiens, T47D, read-out: % Growth Inhibition (GI %)
In short: as §1

EKVX = test: NCI anticancer screening, Non-Small Cell Lung Cancer EKVX; format: cell-based; conditions: Homo sapiens, read-out: % Growth Inhibition (GI %)
In short: as §1

SNB-19 = test: NCI anticancer screening, CNS Cancer SNB-19; format: cell-based; conditions: Homo sapiens; SNB-19, 10 μM; read-out: % Growth Inhibition (GI %)
In short: as §1

OVCAR-5 = test: NCI anticancer screening, Ovarian Cancer OVCAR-5; format: cell-based; conditions: Homo sapiens; OVCAR-5, 10 μM; read-out: % Growth Inhibition (GI %)
In short: as §1

CCRF-CEM = test: NCI anticancer screening, Leukemia CCRF-CEM; format: cell-based; conditions: Homo sapiens, read-out: % Growth Inhibition (GI %)
In short: as §1

K-562 = test: NCI anticancer screening, Leukemia K-562; format: cell-based; conditions: Homo sapiens, K562; K-562, 10 μM; read-out: % Growth Inhibition (GI %)
In short: as §1

NCI-H322M = test: NCI anticancer screening, Non-Small Cell Lung Cancer NCI-H322M; format: cell-based; conditions: Homo sapiens, read-out: % Growth Inhibition (GI %)
In short: as §1

MDA-MB-435 = test: NCI anticancer screening, Melanoma MDA-MB-435; format: cell-based; conditions: Homo sapiens; MDA-MB-435, 10 μM; read-out: % Growth Inhibition (GI %)
In short: as §1

NCI/ADR-RES = test: NCI anticancer screening, Ovarian Cancer NCI/ADR-RES; format: cell-based; conditions: Homo sapiens, read-out: % Growth Inhibition (GI %)
In short: as §1

SR = test: NCI anticancer screening, Leukemia SR; format: cell-based; conditions: Homo sapiens, read-out: % Growth Inhibition (GI %)
In short: as §1

UO-31 = test: NCI anticancer screening, Renal Cancer UO-31; format: cell-based; conditions: Homo sapiens; UO-31, 10 μM; read-out: % Growth Inhibition (GI %)
In short: as §1

HOP-92 = test: NCI anticancer screening, Non-Small Cell Lung Cancer HOP-92; format: cell-based; conditions: Homo sapiens; HOP-92, 10 μM; read-out: % Growth Inhibition (GI %)
In short: as §1

MDA-MB 231 cells = conditions: for inhibition: 5 µM
OVCAR-4 = test: NCI anticancer screening, Ovarian Cancer OVCAR-4; format: cell-based; conditions: Homo sapiens; OVCAR-4, 10 μM; read-out: % Growth Inhibition (GI %)
In short: as §1

HCT-15 = test: NCI anticancer screening, Colon Cancer HCT-15; format: cell-based; conditions: Homo sapiens; HCT-15, 10 μM; read-out: % Growth Inhibition (GI %)
In short: as §1

OVCAR-8 = test: NCI anticancer screening, Ovarian Cancer OVCAR-8; format: cell-based; conditions: Homo sapiens; OVCAR-8, 10 μM; read-out: % Growth Inhibition (GI %)
In short: as §1

SF-295 = test: NCI anticancer screening, CNS Cancer SF-295; format: cell-based; conditions: Homo sapiens; SF-295, 10 μM; read-out: % Growth Inhibition (GI %)
In short: as §1

SW-620 = test: NCI anticancer screening, Colon Cancer SW-620; format: cell-based; conditions: Homo sapiens; SW-620, 10 μM; read-out: % Growth Inhibition (GI %)
In short: as §1

HCT-116 = test: NCI anticancer screening, Colon Cancer HCT-116; format: cell-based; conditions: Homo sapiens; HCT-116, 10 μM; read-out: % Growth Inhibition (GI %)
In short: as §1

SF-268 = test: NCI anticancer screening, CNS Cancer SF-268; format: cell-based; conditions: Homo sapiens; SF-268, 10 μM; read-out: % Growth Inhibition (GI %)
In short: as §1

LOX IMVI = test: NCI anticancer screening, Melanoma LOX IMVI; format: cell-based; conditions: Homo sapiens, read-out: % Growth Inhibition (GI %)
In short: as §1

BT-549 = test: NCI anticancer screening, Breast Cancer BT-549; format: cell-based; conditions: Homo sapiens; BT-549, 10 μM; read-out: % Growth Inhibition (GI %)
In short: as §1

MCF7 = test: NCI anticancer screening, Breast Cancer MCF7; format: cell-based; conditions: Homo sapiens; MCF7, 10 μM; read-out: % Growth Inhibition (GI %)
In short: as §1

NCI-H23 = test: NCI anticancer screening, Non-Small Cell Lung Cancer NCI-H23; format: cell-based; conditions: Homo sapiens; NCI-H23, 10 μM; read-out: % Growth Inhibition (GI %)
In short: as §1

SK-MEL-2 = test: NCI anticancer screening, Melanoma SK-MEL-2; format: cell-based; conditions: Homo sapiens; SK-MEL-2, 10 μM; read-out: % Growth Inhibition (GI %)
In short: as §1

MDA-MB-468 = test: NCI anticancer screening, Breast Cancer MDA-MB-468; format: cell-based; conditions: Homo sapiens, read-out: % Growth Inhibition (GI %)
In short: as §1

SNB-75 = test: NCI anticancer screening, CNS Cancer SNB-75; format: cell-based; conditions: Homo sapiens; SNB-75, 10 μM; read-out: % Growth Inhibition (GI %)
In short: as §1

U251 = test: NCI anticancer screening, CNS Cancer U251; format: cell-based; conditions: Homo sapiens, U-251; U251, 10 μM; read-out: % Growth Inhibition (GI %)
In short: as §1

SF-539 = test: NCI anticancer screening, CNS Cancer SF-539; format: cell-based; conditions: Homo sapiens; SF-539, 10 μM; read-out: % Growth Inhibition (GI %)
In short: as §1

SN12C = test: NCI anticancer screening, Renal Cancer SN12C; format: cell-based; conditions: Homo sapiens, read-out: % Growth Inhibition (GI %)
In short: as §1

HS 578T = test: NCI anticancer screening, Breast Cancer HS 578T; format: cell-based; conditions: Homo sapiens, read-out: % Growth Inhibition (GI %)
In short: as §1

NCI-H460 = test: NCI anticancer screening, Non-Small Cell Lung Cancer NCI-H460; format: cell-based; conditions: Homo sapiens; NCI-H460, 10 μM; read-out: % Growth Inhibition (GI %)
In short: as §1

TK-10 = test: NCI anticancer screening, Renal Cancer TK-10; format: cell-based; conditions: Homo sapiens; TK-10, 10 μM; read-out: % Growth Inhibition (GI %)
In short: as §1

Compound | inhibition at 10 µM (KM12) [%] | inhibition at 10 µM (SK-MEL-5) [%] | inhibition at 10 µM (M14) [%] | inhibition at 10 µM (T-47D) [%] | inhibition at 10 µM (EKVX) [%] | inhibition at 10 µM (SNB-19) [%] | inhibition at 10 µM (OVCAR-5) [%] | inhibition at 10 µM (CCRF-CEM) [%] | inhibition at 10 µM (K-562) [%] | inhibition at 10 µM (NCI-H322M) [%] | inhibition at 10 µM (MDA-MB-435) [%] | inhibition at 10 µM (NCI/ADR-RES) [%] | inhibition at 10 µM (SR) [%] | inhibition at 10 µM (UO-31) [%] | inhibition at 10 µM (HOP-92) [%] | IC50 (MDA-MB 231 cells) [µM] | inhibition (MDA-MB 231 cells) [%] | inhibition at 10 µM (OVCAR-4) [%] | inhibition at 10 µM (HCT-15) [%] | inhibition at 10 µM (OVCAR-8) [%] | also measured
O=C(c1nc2ccccc2[nH]1)[C@H]1[C@H](c2cccc(O)c2)C2CSCN2[C@]12C(=O)Nc1ccccc12 (stereo partly drawn) [Compound 6h, (3S,6′R)-6'-(1H-Benzo [d]imidazole-2-carbonyl)-7'-(3-hydroxyphenyl)-3′,6′,7′,7a′-tetrahydro-1′H-spiro [indoline-3.5′-pyrrolo [1,2-c]thiazol]-2-one] | 89.4 | 93.7 | 97.3 | 76.3 | 96.6 | 97.8 | 92.9 | 108 | 92.5 | 93.5 | 93.5 | 97.1 | 79.1 | 60.6 | 98.3 | 5.44 ± 0.167 | 40.2 | 82.1 | 103 | 97 | inhibition at 10 µM (SF-295): 105%; inhibition at 10 µM (SW-620): 91.8%; inhibition at 10 µM (HCT-116): 89%; inhibition at 10 µM (SF-268): 88.5%; inhibition at 10 µM (LOX IMVI): 84.3%; inhibition at 10 µM (BT-549): 107%; inhibition at 10 µM (MCF7): 92.8%; inhibition at 10 µM (NCI-H23): 99.3%; inhibition at 10 µM (SK-MEL-2): 102%; inhibition at 10 µM (MDA-MB-468): 104%; inhibition at 10 µM (SNB-75): 74.5%; inhibition at 10 µM (U251): 98.9%; inhibition at 10 µM (SF-539): 90%; inhibition at 10 µM (SN12C): 94.8%; inhibition at 10 µM (HS 578T): 80.4%; inhibition at 10 µM (NCI-H460): 94.8%; inhibition at 10 µM (TK-10): 113%; melting point: 205 to 207 °C
O=C(c1nc2ccccc2[nH]1)[C@H]1[C@H](c2cccc(F)c2)C2CSCN2[C@]12C(=O)Nc1ccccc12 (stereo partly drawn) [Compound 6m, (3S,6′R)-6'-(1H-Benzo [d]imidazole-2-carbonyl)-7'-(3-fluorophenyl)-3′,6′,7′,7a′-tetrahydro-1′H-spiro [indoline-3.5′-pyrrolo [1,2-c]thiazol]-2-one] | 98.1 | 88.8 | 97 | 79.8 | 88.2 | 91.9 | 90.5 | 112 | 84.4 | 99.8 | 96.5 | 95.9 | 82.8 | 65.3 | 99.7 | 4.73 ± 0.224 | 62.8 ± 3.91 | 87.3 | 95 | 94.9 | inhibition at 10 µM (SF-295): 96.1%; inhibition at 10 µM (SW-620): 89.1%; inhibition at 10 µM (HCT-116): 84.4%; inhibition at 10 µM (SF-268): 88.6%; inhibition at 10 µM (LOX IMVI): 87.5%; inhibition at 10 µM (BT-549): 99.5%; inhibition at 10 µM (MCF7): 91.2%; inhibition at 10 µM (NCI-H23): 90.7%; inhibition at 10 µM (SK-MEL-2): 95.7%; inhibition at 10 µM (MDA-MB-468): 99.3%; inhibition at 10 µM (SNB-75): 77.7%; inhibition at 10 µM (U251): 106%; inhibition at 10 µM (SF-539): 86.7%; inhibition at 10 µM (SN12C): 96.1%; inhibition at 10 µM (HS 578T): 78.2%; inhibition at 10 µM (NCI-H460): 97.3%; inhibition at 10 µM (TK-10): 116%; melting point: 224 to 226 °C
